Laboratory results reported in the supplement of paper PMC10307832.

Key:
Experiment in all cases: relative viability (nuclei count vs DMSO), 5 days (fraction); higher = more cells survive
[1] = compound: C=C(c1ccc(C(=O)O)cc1)c1cc2c(cc1C)C(C)(C)CCC2(C)C [Bexarotene] + CC(=O)Nc1cccc(-n2c(=O)n(C3CC3)c(=O)c3c(Nc4ccc(I)cc4F)n(C)c(=O)c(C)c32)c1 [Trametinib] (partner 0.02 µM)
Summary of the method: (§1)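 Relative viability was taken as the ratio of nuclei in treated wells to nuclei in vehicle wells. Lung cancer cell lines in 1536-well plates received compounds by pin tool one day after seeding, either one drug alone or a fixed anchor-drug dose plus five library-drug doses (not always all listed) in √10 steps. Nuclei were counted on 4× images after 5 days of treatment, and values are medians of duplicate plates.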

[2] = compound: C=C(c1ccc(C(=O)O)cc1)c1cc2c(cc1C)C(C)(C)CCC2(C)C [Bexarotene] + COc1cccc2cc(-c3nc([C@H]4CC[C@H](C(=O)O)CC4)n4ncnc(N)c34)[nH]c12 [OSI-027] (partner 0.5 µM)
Summary of the method: as §1

[3] = compound: C=C(c1ccc(C(=O)O)cc1)c1cc2c(cc1C)C(C)(C)CCC2(C)C [Bexarotene] + N=C(N)NC(=N)NCCc1ccccc1 [Phenformin] (partner 250 µM)
Summary of the method: as §1

[4] = compound: C=C(c1ccc(C(=O)O)cc1)c1cc2c(cc1C)C(C)(C)CCC2(C)C [Bexarotene] + C[C@@H](Oc1cc(-c2cnn(C3CCNCC3)c2)cnc1N)c1c(Cl)ccc(F)c1Cl [Crizotinib] (partner 1 µM)
Summary of the method: as §1

Row | Cell Line | relative viability ([1]; first compound 0.08 µM) | relative viability ([1]; first compound 0.253 µM) | relative viability ([1]; first compound 0.8 µM) | relative viability ([1]; first compound 2.53 µM) | relative viability ([1]; first compound 8 µM) | relative viability ([2]; first compound 0.08 µM) | relative viability ([2]; first compound 0.253 µM) | relative viability ([2]; first compound 0.8 µM) | relative viability ([2]; first compound 2.53 µM) | relative viability ([2]; first compound 8 µM) | relative viability ([3]; first compound 0.08 µM) | relative viability ([3]; first compound 0.253 µM) | relative viability ([3]; first compound 0.8 µM) | relative viability ([3]; first compound 2.53 µM) | relative viability ([3]; first compound 8 µM) | relative viability ([4]; first compound 0.08 µM) | relative viability ([4]; first compound 0.253 µM) | relative viability ([4]; first compound 0.8 µM) | relative viability ([4]; first compound 2.53 µM) | relative viability ([4]; first compound 8 µM)
1 | NCI-H1734 | 0.69 | 0.732 | 0.642 | 0.589 | 0.57 | 0.616 | 0.64 | 0.591 | 0.493 | 0.543 | 0.414 | 0.339 | 0.421 | 0.335 | 0.382 | 0.724 | 0.77 | 0.65 | 0.667 | 0.646
2 | NCI-H1755 | 0.849 | 0.864 | 0.834 | 0.773 | 0.718 | 0.777 | 0.741 | 0.675 | 0.637 | 0.611 | 0.717 | 0.679 | 0.623 | 0.601 | 0.622 | 0.85 | 1.09 | 0.971 | 0.848 | 0.802
3 | NCI-H1792 | 0.677 | 0.46 | 0.442 | 0.493 | 0.345 | 0.739 | 0.757 | 0.681 | 0.764 | 0.68 | 0.276 | 0.214 | 0.166 | 0.135 | 0.119 | 0.859 | 0.947 | 0.874 | 0.737 | 0.831
4 | NCI-H1915 | 0.297 | 0.286 | 0.266 | 0.255 | 0.218 | 0.67 | 0.661 | 0.568 | 0.594 | 0.601 | 0.378 | 0.373 | 0.382 | 0.383 | 0.36 | 0.969 | 0.948 | 0.851 | 0.905 | 0.849
5 | NCI-H1944 | 0.526 | 0.517 | 0.465 | 0.47 | 0.425 | 0.616 | 0.495 | 0.48 | 0.476 | 0.451 | 0.278 | 0.238 | 0.228 | 0.238 | 0.218 | 1.3 | 1.17 | 1.18 | 1.26 | 1.02
6 | NCI-H1975 | 0.387 | 0.38 | 0.307 | 0.331 | 0.333 | 0.9 | 0.811 | 0.802 | 0.806 | 0.722 | 0.492 | 0.419 | 0.436 | 0.446 | 0.407 | 1.01 | 1.02 | 1.05 | 1.08 | 1.11
7 | NCI-H1993 | 0.547 | 0.541 | 0.507 | 0.395 | 0.544 | 0.588 | 0.498 | 0.564 | 0.54 | 0.564 | 0.527 | 0.553 | 0.572 | 0.576 | 0.557 | 0.926 | 0.751 | 0.71 | 0.831 | 0.746
8 | NCI-H2009 | 0.336 | 0.331 | 0.28 | 0.391 | 0.413 | 0.729 | 0.705 | 0.584 | 0.547 | 0.598 | 0.554 | 0.527 | 0.526 | 0.479 | 0.479 | 1.16 | 0.882 | 1.08 | 1.08 | 1.06
9 | NCI-H2023 | 0.719 | 0.676 | 0.551 | 0.497 | 0.355 | 0.384 | 0.391 | 0.439 | 0.311 | 0.378 | 0.437 | 0.483 | 0.443 | 0.422 | 0.344 | 0.609 | 0.591 | 0.715 | 0.624 | 0.494
10 | NCI-H2085 | 0.486 | 0.59 | 0.4 | 0.449 | 0.535 | 0.841 | 0.718 | 0.642 | 0.675 | 0.704 | 0.759 | 0.646 | 0.531 | 0.678 | 0.718 | 0.863 | 0.891 | 0.831 | 0.791 | 0.74
11 | NCI-H2087 | 0.21 | 0.166 | 0.175 | 0.148 | 0.171 | 0.643 | 0.693 | 0.663 | 0.565 | 0.448 | 0.527 | 0.475 | 0.451 | 0.433 | 0.435 | 0.854 | 1.14 | 0.716 | 0.827 | 0.867
12 | NCI-H2126 | 0.639 | 0.56 | 0.553 | 0.619 | 0.54 | 0.675 | 0.71 | 0.742 | 0.74 | 0.683 | 0.529 | 0.535 | 0.526 | 0.56 | 0.55 | 1.08 | 1.05 | 0.989 | 1.08 | 0.977
13 | NCI-H2170 | 0.901 | 0.916 | 0.886 | 0.785 | 0.768 | 0.699 | 0.757 | 0.636 | 0.683 | 0.604 | 0.457 | 0.403 | 0.388 | 0.357 | 0.361 | 1.1 | 1.11 | 1.15 | 1.02 | 1.05
14 | NCI-H2228 | 0.54 | 0.641 | 0.389 | 0.457 | 0.417 | 0.848 | 0.639 | 0.359 | 0.568 | 0.477 | 0.31 | 0.372 | 0.276 | 0.264 | 0.3 | 0.512 | 0.462 | 0.374 | 0.356 | 0.458
15 | NCI-H2347 | 0.31 | 0.235 | 0.25 | 0.279 | 0.299 | 0.353 | 0.275 |  | 0.446 | 0.386 | 0.361 | 0.434 |  | 0.376 | 0.353 | 0.671 | 0.773 | 0.597 | 0.765 | 0.674
16 | NCI-H2405 | 0.823 | 0.819 | 0.66 | 0.749 | 0.693 | 0.675 | 0.674 | 0.512 | 0.708 | 0.65 | 0.448 | 0.443 | 0.296 | 0.408 | 0.36 | 0.945 | 0.853 | 0.665 | 0.806 | 0.839
